{"source": "patent US8557823B2", "about": "“Family of PFKFB3 inhibitors with anti-neoplastic activities” (Advanced Cancer Therapeutics, LLC, priority 2007, dated 2013)", "format_in_all_cases": "cell-based", "key": {"[1]": {"test_system": "A549 lung carcinoma cells", "assay": "In vitro growth inhibition, A549", "settings": "human A549", "method": "(§1) The K562, HL-60, MDA-MB231, and melanoma (CRL-11174) human cancer cell lines were purchased from ATCC (American Tissue Type Culture Collection, Manassas, Va., United States of America). HeLa, A549, Lewis Lung Carcinoma, MDA-MB231, and melanoma cells were grown in Dulbecco's Modified Eagle Medium (DMEM) (Hyclone, Logan, Utah, United States of America) supplemented with 10% fetal bovine serum (Hyclone, Logan, Utah, United States of America) and 50 μg/mL gentamicin sulfate (Invitrogen, Carlsbad, Calif., United States of America). The HL-60, K562, and Jurkat cell lines were grown in RPMI-1640 medium (Hyclone, Logan, Utah, United States of America) supplemented with 10% fetal bovine serum and 50 μg/mL gentamicin sulfate. […]\n(§2) Cells were collected 48 hours post-treatment, and cell number and viability were determined by trypan blue exclusion. […]"}, "[2]": {"test_system": "MDA-MB231 breast adenocarcinoma cells", "assay": "In vitro growth inhibition, MDA-MB231", "settings": "Homo sapiens, MDA-MB-231", "method": "as §1, §2"}, "[3]": {"test_system": "melanoma (CRL-11174) cells", "assay": "In vitro growth inhibition, melanoma line", "settings": "Homo sapiens", "method": "as §1, §2"}, "[4]": {"test_system": "PFKFB3 over-expressing Jurkat cells", "assay": "Growth inhibition of Jurkat cells over-expressing PFKFB3 (Tet-ON, doxycycline)", "settings": "Homo sapiens, 48 hours", "method": "FIG. 6D is a bar graph showing the anti-proliferative effects of 3PO in Jurkat cells engineered to over-express PFKFB3 through doxycylin treatment utilizing the Tet-on system (+PFKFB3, striped bars). Twenty-four hours prior to 3PO treatment, 1 μg/mL of doxycyclin is incubated with Jurkat cells containing a PFKFB3-expressing vector in order to induce PFKFB3 protein levels. Control cells (−PFKFB3, solid bars) containing an empty vector were similarly treated with doxycyclin and served as background PFKFB3 expression. Both cell types were subsequently incubated with increasing concentrations of 3PO (1, 3, 10, or 33 μM) or vehicle (V), and viable cells were analyzed after 48 hours. The bars represent the mean±STD of triplicate values from a representative experiment.\nFLAG-PFKFB3 containing the complete PFKFB3 coding sequence and FLAG-epitope at its N-terminus was subcloned into the BamHI/HindIII restriction sites within the retroviral Tet response vector pRevTRE (Clontech, Mountain View, Calif., United States of America). Recombinant retrovirus was produced by Lipofectamine-mediated (Invitrogen, Carlsbad, Calif., United States of America) transfection of the pRevTRE-FLAG-PFKFB3 construct into PT67 packaging cell lines. […]\nas §2"}}}
{"smiles": "O=C(/C=C/c1cccnc1)c1ccncc1", "note": "[Compound 1, 3-(3-pyridinyl)-1-(4-pyridinyl)-2-propen-1-one]", "values": [{"measurement": "IC50", "setting": "[1]", "value": 24, "unit": "µM"}, {"measurement": "IC50", "setting": "[2]", "value": 4.7, "unit": "µM"}, {"measurement": "IC50", "setting": "[3]", "value": 15, "unit": "µM"}, {"measurement": "IC50", "setting": "[4]", "value": 19.3, "unit": "µM"}]}
